Experiments:
Type in all cases: in vivo
[1] = tested on: Alopecurus myosuroides; test: Pre-emergence herbicidal effect; conditions: visual score after 3 weeks
Source text: (§1) Seeds of monocotyledonous and dicotyledonous weed plants and crop plants are laid out in wood-fibre pots in sandy loam and covered with soil. The compounds according to the invention formulated in the form of wettable powders (WP) or as emulsion concentrates (EC) are then applied as aqueous suspension or emulsion at a water application rate of 600 to 800 l/ha (converted) with the addition of 0.2% wetting agent to the surface of the covering soil. After the treatment, the pots are placed in a greenhouse and kept under good growth conditions for the trial plants. The damage to the test plants is scored visually after a test period of 3 weeks by comparison with untreated controls (herbicidal activity in percent (%): 100% activity=the plants have died, 0% activity=like control plants).

[2] = tested on: Avena fatua; test: Pre-emergence herbicidal effect; conditions: visual score after 3 weeks
Source text: as §1

[3] = tested on: Echinochloa crus-galli; test: Pre-emergence herbicidal effect; conditions: visual score after 3 weeks
Source text: as §1

[4] = tested on: Lolium multiflorum; test: Pre-emergence herbicidal effect; conditions: visual score after 3 weeks
Source text: as §1

[5] = tested on: Setaria viridis; test: Pre-emergence herbicidal effect; conditions: visual score after 3 weeks
Source text: as §1

[6] = tested on: Alopecurus myosuroides; test: Post-emergence herbicidal effect; conditions: visual assessment after about 3 weeks
Experimental: (§2) Seeds of monocotyledonous and dicotyledonous weed and crop plants are laid out in sandy loam in wood-fibre pots, covered with soil and cultivated in a greenhouse under good growth conditions. 2 to 3 weeks after sowing, the test plants are treated at the one-leaf stage. The compounds according to the invention, formulated in the form of wettable powders (WP) or as emulsion concentrates (EC), are then sprayed as aqueous suspension or emulsion at a water application rate of 600 to 800 l/ha (converted) with the addition of 0.2% of wetting agent onto the green parts of the plants. After the test plants have been left to stand in the greenhouse under optimal growth conditions for about 3 weeks, the action of the preparations is assessed visually in comparison to untreated controls (herbicidal action in percent (%): 100% activity=the plants have died, 0% activity=like control plants).

[7] = tested on: Echinochloa crus-galli; test: Post-emergence herbicidal effect; conditions: visual assessment after about 3 weeks
Experimental: as §2

[8] = tested on: Lolium multiflorum; test: Post-emergence herbicidal effect; conditions: visual assessment after about 3 weeks
Experimental: as §2

[9] = tested on: Setaria viridis; test: Post-emergence herbicidal effect; conditions: visual assessment after about 3 weeks
Experimental: as §2

[10] = tested on: Avena fatua; test: Post-emergence herbicidal effect; conditions: visual assessment after about 3 weeks
Experimental: as §2

Row | Structure (SMILES) | Pre-emergence effectiveness ALOMY ([1]; 320 g/ha) | Pre-emergence effectiveness AVEFA ([2]; 320 g/ha) | Pre-emergence effectiveness ECHCG ([3]; 80 g/ha) | Pre-emergence effectiveness ECHCG ([3]; 320 g/ha) | Pre-emergence effectiveness LOLMU ([4]; 320 g/ha) | Pre-emergence effectiveness SETVI ([5]; 80 g/ha) | Pre-emergence effectiveness SETVI ([5]; 320 g/ha) | Post-emergence effectiveness ALOMY ([6]; 80 g/ha) | Post-emergence effectiveness ECHCG ([7]; 20 g/ha) | Post-emergence effectiveness ECHCG ([7]; 80 g/ha) | Post-emergence effectiveness LOLMU ([8]; 20 g/ha) | Post-emergence effectiveness LOLMU ([8]; 80 g/ha) | Post-emergence effectiveness SETVI ([9]; 20 g/ha) | Post-emergence effectiveness SETVI ([9]; 80 g/ha) | Pre-emergence effectiveness ALOMY ([1]; 80 g/ha) | Pre-emergence effectiveness LOLMU ([4]; 80 g/ha) | Post-emergence effectiveness AVEFA ([10]; 80 g/ha) | Post-emergence effectiveness ALOMY ([6]; 20 g/ha) | Post-emergence effectiveness AVEFA ([10]; 20 g/ha) | Pre-emergence effectiveness AVEFA ([2]; 80 g/ha)
1 | COCC1CCC2(C1)NC(=O)C(c1c(C)cc(C#CC3CC3)cc1C)=C2O (mixture of isomers) [Example I-14] | 100% | 80% | 100% | 100% | 100% | 90% | 90% | 80% | 90% | 100% | 90% | 90% | 90% | 90% |  |  |  |  |  | 
2 | CC#Cc1cc(CC)c(C2=C(O)C3(CCC(CCOC)CC3)NC2=O)c(CC)c1 (stereo not drawn) [Example I-1] | 100% | 80% | 100% | 100% | 100% | 100% | 100% | 90% | 100% | 100% | 90% | 90% | 90% | 100% | 80% | 100% | 90% |  |  | 
3 | CC#Cc1cc(C)c(C2=C(O)C3(CCC(COC)C3)NC2=O)c(CC)c1 (stereo not drawn) [Example I-9] | 100% | 90% | 100% | 100% | 100% | 90% | 100% | 100% | 100% | 100% | 100% | 100% | 100% | 100% | 100% | 80% | 100% | 100% | 90% | 
4 | COCC1CCC2(C1)NC(=O)C(c1c(C)cc(C#CC3CC3)cc1C)=C2O (stereo not drawn) [Example I-13] | 100% |  | 100% | 100% | 90% | 90% | 100% | 80% | 90% | 90% |  | 90% | 90% | 90% |  |  |  |  |  | 
5 | CC#Cc1cc(C)c(C2=C(OC(=O)C(C)C)C3(CCC(COC)C3)NC2=O)c(CC)c1 (stereo not drawn) [Example Ia-6] | 100% | 90% | 100% | 100% | 100% | 100% | 100% | 100% | 100% | 100% | 90% | 90% |  | 100% | 100% | 100% |  |  |  | 90%
6 | CC#Cc1cc(C)c(C2=C(OC(=O)C(C)C)C3(CCC(COC)C3)NC2=O)c(CC)c1 (stereo not drawn) [Example Ia-7] |  |  | 100% |  |  | 100% |  | 100% | 90% | 100% |  | 100% |  | 80% | 100% | 100% |  |  |  | 
7 | CC#Cc1cc(C)c(C2=C(OC(=O)C(C)C)C3(CCC(COC)C3)NC2=O)c(CC)c1 (stereo not drawn) [Example Ia-9] |  |  |  |  |  |  |  | 100% | 100% | 100% | 90% | 90% | 100% | 100% |  |  | 90% | 100% | 90% | 
8 | CCc1cc(C#CC2CC2)cc(C)c1C1=C(OC(=O)C(C)C)C2(CCC(COC)C2)NC1=O (stereo not drawn) [Example Ia-11] | 100% | 80% | 100% | 100% | 100% | 100% | 100% | 90% | 100% | 100% |  | 90% | 80% | 90% | 100% | 100% |  |  |  | 
9 | CC#Cc1cc(CC)c(C2=C(OC(=O)C(C)C)C3(CCC(OCCOC)CC3)NC2=O)c(CC)c1 (stereo not drawn) [Example Ia-13] | 100% | 100% | 100% | 100% | 100% | 100% | 100% |  | 80% | 100% |  |  |  | 80% | 100% | 100% |  |  |  | 80%
10 | CC#Cc1cc(C)c(C2=C(OS(C)(=O)=O)C3(CCC(COC)C3)NC2=O)c(CC)c1 (stereo not drawn) [Example Ia-16] | 90% |  | 90% | 100% | 90% | 90% | 90% |  |  |  |  |  |  |  | 90% |  |  |  |  | 

Reference: patent US10899709B2, “Novel-alkynyl-substituted 3-phenylpyrrolidine-2,4-diones and use thereof as herbicides” (BAYER CROPSCIENCE AKTIENGESELLSCHAFT, priority 2015, dated 2021)
